In DBAASP one finds MIC data, which are given here for ten compounds.

Values after ≈ are worked out from the molar mass of the structure shown.

Some test systems named below: Candida albicans; Escherichia coli; Staphylococcus aureus; Escherichia coli UB1005.
What all share (assay): ≥ marks a high value that may be exact or a test limit, other limits are often not marked, values filed in µg/mL are converted to µM
In assay [1] the test system is Candida albicans ATCC 90028.
Assay [2] relates to Staphylococcus aureus NCTC 8325.
For assay [3], the system named is Escherichia coli ATCC 25922.
The subject of assay [4] is Bacillus subtilis ATCC 6633.
In assay [5] the test system is Klebsiella pneumoniae ATCC 700603.
Assay [6] has as its system Pseudomonas aeruginosa ATCC 27853.
Assay [7] concerns Staphylococcus aureus ATCC 25923.
Assay [8] concerns Staphylococcus epidermidis ATCC 12228.
Assay [9] deals with Salmonella enterica subsp. enterica serovar Typhimurium ATCC 14028.
Assay [10] has as its system Salmonella enterica subsp. enterica serovar Typhimurium C77-31.
Assay [11] relates to Staphylococcus aureus ATCC 29213.
Assay [12] has as its system Staphylococcus aureus ATCC 43300.

As to `CC[C@H](C)[C@@H]1NC(=O)[C@H](CC(C)C)NC(=O)[C@@H](NC(=O)[C@H](CC(C)C)NC(=O)[C@H](CC(C)C)NC(=O)[C@H](CCCCN)NC(=O)[C@@H]2CCCN2C(=O)CNC(=O)[C@H](CC(C)C)NC(=O)[C@@H](NC(=O)[C@H](C)NC(=O)[C@H](C)NC(=O)[C@H](CC(C)C)NC(=O)[C@H](CO)NC(=O)[C@H](C)NC(=O)[C@H](CC(C)C)NC(=O)[C@@H](NC(=O)[C@@H]2CCCN2C(=O)[C@H](CC(C)C)NC(=O)[C@@H](N)Cc2ccccc2)[C@@H](C)CC)[C@@H](C)O)CSSC[C@@H](C(=O)O)NC(=O)[C@H](CCCCN)NC(=O)[C@H](CCCCN)NC(=O)[C@H]([C@@H](C)O)NC1=O` [FLPILASLAATLGPKLLCLITKKC], the figures for the MIC in assay [1] and in assay [2] were at least 35 µM and 8 µM (≈ 20.2 µg/mL), respectively.
`CC[C@H](C)[C@H](NC(=O)[C@H](C)NC(=O)[C@@H]1CCCN1C(=O)[C@H](CC(C)C)NC(=O)[C@@H](N)Cc1ccccc1)C(=O)N[C@@H](C)C(=O)NCC(=O)N[C@H](C(=O)N[C@@H](C)C(=O)N[C@@H](C)C(=O)N[C@@H](CCCCN)C(=O)N[C@@H](Cc1ccccc1)C(=O)N[C@@H](CC(C)C)C(=O)N1CCC[C@H]1C(=O)N[C@@H](CCCCN)C(=O)N[C@H](C(=O)N[C@@H](Cc1ccccc1)C(=O)N[C@H]1CSSC[C@@H](C(=O)O)NC(=O)[C@H](CCCCN)NC(=O)[C@H](CCCCN)NC(=O)[C@H](CO)NC(=O)[C@H]([C@@H](C)CC)NC(=O)[C@H](C)NC1=O)[C@@H](C)CC)C(C)C` [FLPAIAGVAAKFLPKIFCAISKKC]: the minimum inhibitory concentration (MIC) amounted to 7 µM (≈ 17.7 µg/mL) in assay [1], 7 µM (≈ 17.7 µg/mL) in assay [3] and 3 µM (≈ 7.61 µg/mL) in [2].
Turning to `CC[C@H](C)[C@H](NC(=O)CNC(=O)[C@H](C)NC(=O)[C@@H](NC(=O)[C@H](CC(=O)O)NC(=O)[C@H](CCCCN)NC(=O)[C@H](C)NC(=O)[C@H](C)NC(=O)CNC(=O)[C@H](CCCCN)NC(=O)[C@H](CC(C)C)NC(=O)[C@@H](NC(=O)[C@H](CC(=O)O)NC(=O)[C@H](CC(C)C)NC(=O)[C@H](CC(C)C)NC(=O)[C@H](CC(C)C)NC(=O)CN)[C@@H](C)O)[C@@H](C)CC)C(=O)N[C@@H](C)C(=O)N[C@@H](CC(C)C)C(=O)N[C@@H](CCC(=O)O)C(=O)N[C@@H](CCCCN)C(=O)N[C@@H](CC(C)C)C(=O)N[C@@H](CCCCN)C(=O)N[C@H]1CSSC[C@@H](C(=O)N[C@@H](CCCCN)C(=O)N2CCC[C@H]2C(=O)O)NC(=O)CNC(=O)[C@H]([C@@H](C)O)NC(=O)[C@H]([C@@H](C)CC)NC(=O)[C@H](CCCCN)NC1=O` [GLLLDTLKGAAKDIAGIALEKLKCKITGCKP], the MIC in assay [3] was 19 µM (≈ 60.4 µg/mL); in [2] it was at least 150 µM.
In the case of `CC[C@H](C)[C@@H]1NC(=O)[C@H](C)NC(=O)[C@@H](NC(=O)[C@H](Cc2ccccc2)NC(=O)[C@@H](NC(=O)[C@H](CCCCN)NC(=O)[C@@H]2CCCN2C(=O)[C@H](CC(C)C)NC(=O)[C@H](Cc2ccccc2)NC(=O)[C@H](CC(N)=O)NC(=O)[C@H](C)NC(=O)[C@H](C)NC(=O)[C@H](CC(C)C)NC(=O)CNC(=O)[C@H](C)NC(=O)[C@@H](NC(=O)[C@H](CC(C)C)NC(=O)[C@@H]2CCCN2C(=O)[C@H](CC(C)C)NC(=O)[C@@H](N)Cc2ccccc2)[C@@H](C)CC)[C@@H](C)CC)CSSC[C@@H](C(=O)O)NC(=O)[C@H](CCCCN)NC(=O)[C@H](CCCCN)NC(=O)[C@H]([C@@H](C)O)NC1=O` [FLPLIAGLAANFLPKIFCAITKKC], the figures for the MIC in assay [1], in assay [3] and in [2] were 6 µM (≈ 15.5 µg/mL), 26 µM (≈ 67.4 µg/mL) and 9 µM (≈ 23.3 µg/mL), respectively.
As for `CC(=O)N[C@@H](Cc1ccccc1)C(=O)N[C@@H](CCCCN)C(=O)N[C@@H](CC(C)C)C(=O)N[C@@H](CCCCN)C(=O)N[C@@H](CC(C)C)C(=O)N[C@@H](CCCCN)C(=O)N[C@@H](Cc1ccccc1)C(=O)N[C@@H](CO)C(=O)N[C@@H](CC(N)=O)C(=O)N[C@@H](CCCCN)C(=O)N[C@@H](CC(C)C)C(=O)N[C@@H](CCCCN)C(=O)N[C@@H](Cc1c[nH]c2ccccc12)C(=O)N[C@@H](CCCCN)C(=O)N[C@@H](Cc1c[nH]c2ccccc12)C(N)=O` [FKLKLKFSNKLKWKW], the MIC came to 3.2 µM (≈ 6.51 µg/mL) in [4]; 12.5 µM (≈ 25.4 µg/mL) in assay [3]; 25 µM (≈ 50.9 µg/mL) in [5]; 12.5 µM (≈ 25.4 µg/mL) in assay [6]; 25 µM (≈ 50.9 µg/mL) in assay [7]; 12.5 µM (≈ 25.4 µg/mL) in [8].
In [2], `CC[C@H](C)[C@@H]1NC(=O)[C@H](C)NC(=O)[C@@H](NC(=O)[C@H](Cc2ccccc2)NC(=O)[C@@H](NC(=O)[C@H](CCCCN)NC(=O)[C@@H]2CCCN2C(=O)[C@H](CC(C)C)NC(=O)[C@H](Cc2ccccc2)NC(=O)[C@H](CCCCN)NC(=O)[C@H](C)NC(=O)[C@H](C)NC(=O)[C@@H](NC(=O)CNC(=O)[C@H](C)NC(=O)[C@@H](NC(=O)[C@H](Cc2ccccc2)NC(=O)[C@@H]2CCCN2C(=O)[C@H](CC(C)C)NC(=O)[C@@H](N)Cc2ccccc2)[C@@H](C)CC)C(C)C)[C@@H](C)CC)CSSC[C@@H](C(=O)O)NC(=O)[C@H](CCCCN)NC(=O)[C@H](CCCCN)NC(=O)[C@H](CO)NC1=O` [FLPFIAGVAAKFLPKIFCAISKKC] gave an MIC of 13 µM (≈ 33.9 µg/mL).
As for `CC[C@H](C)[C@H](NC(=O)[C@H](CCCCN)NC(=O)[C@H](CS)NC(=O)[C@H](C)NC(=O)[C@@H](NC(=O)[C@H](Cc1ccccc1)NC(=O)[C@H](CCC(=O)O)NC(=O)[C@H](CC(C)C)NC(=O)[C@H](CCC(=O)O)NC(=O)[C@@H](NC(=O)[C@H](CCCCN)NC(=O)[C@H](CCC(=O)O)NC(=O)[C@H](CC(C)C)NC(=O)[C@H](CC(N)=O)NC(=O)[C@H](CCCCN)NC(=O)[C@H](CC(C)C)NC(=O)[C@@H](NC(=O)[C@H](CO)NC(=O)[C@H](CC(C)C)NC(=O)[C@H](CCSC)NC(=O)[C@@H](N)CO)C(C)C)C(C)C)C(C)C)C(=O)N[C@@H](CC(N)=O)C(=O)N[C@@H](CCCCN)C(=O)N[C@@H](CCC(N)=O)C(=O)N[C@@H](CS)C(=O)O` [SMLSVLKNLEKVELEFVACKINKQC], the MIC against Candida albicans, with Escherichia coli and in the assay with Staphylococcus aureus was above 200 µM in each case.
For `CC[C@H](C)[C@H](NC(=O)[C@H](CCCCN)NC(=O)[C@@H]1CCCN1C(=O)[C@H](CC(C)C)NC(=O)[C@H](Cc1ccccc1)NC(=O)[C@H](CC(N)=O)NC(=O)[C@H](C)NC(=O)[C@H](C)NC(=O)[C@H](CC(C)C)NC(=O)CNC(=O)[C@H](C)NC(=O)[C@H](CC(C)C)NC(=O)[C@H](CC(C)C)NC(=O)[C@@H]1CCCN1C(=O)[C@H](CC(C)C)NC(=O)[C@@H](N)Cc1ccccc1)C(=O)N[C@@H](Cc1ccccc1)C(=O)N[C@H]1CSSC[C@@H](C(=O)O)NC(=O)[C@H](CCCCN)NC(=O)[C@H](CCCCN)NC(=O)[C@H]([C@@H](C)O)NC(=O)[C@H]([C@@H](C)CC)NC(=O)[C@H](CCCCN)NC1=O` [FLPLLAGLAANFLPKIFCKITKKC], the MIC came to 25 µM (≈ 66.2 µg/mL) in assay [3] and 12.5 µM (≈ 33.1 µg/mL) in assay [2].
Turning to `CC[C@H](C)[C@H](N)C(=O)N[C@@H](CCCN=C(N)N)C(=O)N1CCC[C@H]1C(=O)N[C@H](C(=O)N[C@@H](CCCN=C(N)N)C(=O)N1CCC[C@H]1C(=O)O)[C@@H](C)CC` [IRPIRP], the MIC in assay [3] was above 128 µM; in the assay on Escherichia coli UB1005, at least 128 µM; in assay [6] it was above 128 µM; in [9], above 128 µM; in assay [10], at least 128 µM; in [7], above 128 µM. The MIC in [11], in [12] and in assay [8] was above 128 µM each time.
In assay [2], `CC[C@H](C)[C@H](NC(=O)[C@@H](NC(=O)[C@@H]1CCCN1C(=O)[C@H](CC(C)C)NC(=O)[C@@H](NC(=O)[C@@H](N)CO)[C@@H](C)CC)[C@@H](C)O)C(=O)N[C@H](C(=O)N[C@@H](CO)C(=O)N[C@@H](Cc1ccccc1)C(=O)N[C@@H](CC(C)C)C(=O)N[C@H](C(=O)N[C@@H](CCCCN)C(=O)N[C@@H](Cc1ccccc1)C(=O)N[C@@H](CC(C)C)C(N)=O)[C@@H](C)O)C(C)C` [SILPTIVSFLTKFL] showed an MIC of 25 µM (≈ 39.4 µg/mL).

As usually defined, the MIC is the lowest concentration found to suppress growth. High values mean a less susceptible organism, low ones a more susceptible organism.
